In patent US20170150719A1, “FUNGICIDAL PYRAZOLES AND THEIR MIXTURES” (E I DU PONT DE NEMOURS AND COMPANY, priority 2010, published 2017):

Assays:
[1] = test system: Phytophthora infestans; test: whole plant or invertebrate; type: in vivo; conditions: for pest or weed control at 200 µg/mL: Phytophthora infestans, in Solanum lycopersicum, read-out: Test C rating (disease control); for Test C rating (disease control) / Test C rating (% disease control): tomato late blight, 100 = 100% disease control; for Test C rating (disease control): 0 = no disease control relative to the controls; for Test C rating (% disease control): preventive spray, rating without asterisk
[2] = test system: Septoria tritici; test: Test F: wheat leaf blotch, preventive spray on wheat seedlings, visual disease rating; type: in vivo; conditions: 100 = 100% disease control, 0 = no disease control relative to the controls; for pest or weed control at 200 µg/mL: Zymoseptoria tritici
Source text: (§1) A hyphen (-) indicates no test results.

[3] = test system: Puccinia recondita f. sp. tritici; test: Test G: wheat leaf rust, spray after inoculation (curative) on wheat seedlings, visual disease rating; type: in vivo; conditions: 100 = 100% disease control; for pest or weed control at 200 µg/mL / Test G rating (disease control): sprayed after inoculation, 0 = no disease control; for Test G rating (% disease control): spray after inoculation, rating without asterisk
Source text: as §1

[4] = test system: Puccinia recondita f. sp. tritici; test: Test H: wheat leaf rust, preventive spray on wheat seedlings, visual disease rating; conditions: 100 = 100% disease control; for pest or weed control at 200 µg/mL: read-out: Test H rating (disease control), wheat leaf rust, sprayed the day before inoculation; for pest or weed control at 200 µg/mL / Test H rating (disease control): 0 = no disease control; for Test H rating (disease control) / Test H rating (% disease control): wheat leaf rust; for Test H rating (disease control): sprayed the day before inoculation; for Test H rating (% disease control): preventive spray, rating without asterisk
Procedure: (§2) General protocol for preparing test suspensions for Tests A-I: the test compounds were first dissolved in acetone in an amount equal to 3% of the final volume and then suspended at the desired concentration (in ppm) in acetone and purified water (50/50 mix by volume) containing 250 ppm of the surfactant Trem® 014 (polyhydric alcohol esters). The resulting test suspensions were then used in Tests A-I. Each test was conducted in triplicate, and the results were averaged. Spraying a 200 ppm test suspension to the point of run-off on the test plants was the equivalent of a rate of about 800 g/ha. Unless otherwise indicated, the rating values indicate a 200 ppm test suspension was used. (An asterisk “*” next to the rating value indicates a 40 ppm test suspension was used.)
The test suspension was sprayed to the point of run-off on wheat seedlings. The following day the seedlings were inoculated with a spore suspension of Puccinia recondita f. sp. tritici (the causal agent of wheat leaf rust) and incubated in a saturated atmosphere at 20° C. for 24 h, and then moved to a growth chamber at 20° C. for 6 days, after which time visual disease ratings were made.

[5] = test system: Botrytis cinerea; test: Test A: tomato Botrytis, preventive spray on tomato seedlings, visual disease rating; conditions: 100 = 100% disease control; for pest or weed control at 200 µg/mL: Botrytis cinerea, in Solanum lycopersicum, read-out: Test A rating (disease control), tomato Botrytis; for pest or weed control at 200 µg/mL / Test A rating (disease control): 0 = no disease control relative to the controls; for Test A rating (disease control) / Test A rating (% disease control): tomato Botrytis; for Test A rating (% disease control): preventive spray, 0 = no control relative to controls, rating without asterisk
Procedure: as §2
The test suspension was sprayed to the point of run-off on tomato seedlings. The following day the seedlings were inoculated with a spore suspension of Botrytis cinerea (the causal agent of tomato Botrytis) and incubated in saturated atmosphere at 20° C. for 48 h, and then moved to a growth chamber at 24° C. for 3 additional days, after which time visual disease ratings were made.

[6] = test system: Alternaria solani; test: Test B: tomato early blight, preventive spray on tomato seedlings, visual disease rating; conditions: for pest or weed control at 200 µg/mL: Alternaria solani, in Solanum lycopersicum, read-out: Test B rating (disease control); for Test B rating (disease control) / Test B rating (% disease control): tomato early blight, 100 = 100% disease control; for Test B rating (disease control): 0 = no disease control relative to the controls; for Test B rating (% disease control): preventive spray, rating without asterisk
[7] = test system: Blumeria graminis f. sp. tritici; test: Test I: wheat powdery mildew, preventive spray on wheat seedlings, visual disease rating; conditions: 100 = 100% disease control; for pest or weed control at 200 µg/mL: Blumeria graminis, in Triticum aestivum, read-out: Test I rating (disease control), wheat powdery mildew; for pest or weed control at 200 µg/mL / Test I rating (disease control): 0 = no disease control relative to the controls; for Test I rating (disease control) / Test I rating (% disease control): wheat powdery mildew; for Test I rating (% disease control): preventive spray, rating without asterisk
[8] = test system: Septoria nodorum; test: Test E: Septoria glume blotch, preventive spray on wheat seedlings, visual disease rating; conditions: 100 = 100% disease control; for pest or weed control at 200 µg/mL: Parastagonospora nodorum, in Triticum aestivum, read-out: Test E rating (disease control), Septoria glume blotch; for pest or weed control at 200 µg/mL / Test E rating (disease control): 0 = no disease control relative to the controls; for Test E rating (disease control): Septoria glume blotch; for Test E rating (% disease control): Septoria glume blotch on wheat, preventive spray, rating without asterisk

Row | SMILES | pest or weed control at 200 µg/mL [1] [%] | pest or weed control at 200 µg/mL [2] [%] | pest or weed control at 200 µg/mL [3] [%] | pest or weed control at 200 µg/mL [4] [%] | pest or weed control at 200 µg/mL [5] [%] | pest or weed control at 200 µg/mL [6] [%] | pest or weed control at 200 µg/mL [7] [%] | pest or weed control at 200 µg/mL [8] [%] | Test F rating (disease control) [2] [%] | Test G rating (disease control) [3] [%] | Test H rating (disease control) [4] [%] | Test A rating (disease control) [5] [%] | Test B rating (disease control) [6] [%] | Test I rating (disease control) [7] [%] | Test E rating (disease control) [8] [%] | further results
1 | Cc1nn(C)c(Nc2ccc(F)cc2Cl)c1-c1ccc(F)cc1Cl [Compound 47, N,4-bis(2-chloro-4-fluorophenyl)-1,3-dimethyl-1H-pyrazol-5-amine] | 0 | 96 | 93 | 99 | 100 | 99 | 100 | 82 |  |  |  |  |  |  |  | 
2 | Cc1nn(C)c(Nc2c(F)cc(F)cc2Cl)c1-c1ccc(F)cc1Cl [Compound 82, N-(2-chloro-4,6-difluorophenyl)-4-(2-chloro-4-fluorophenyl)-1,3-dimethyl-1H-pyrazol-5-amine] | 0 | 100 | 97 | 100 | 99 | 100 | 100 | 100 |  |  |  |  |  |  |  | 
3 | Cc1nn(C)c(Nc2c(F)cc(Cl)cc2Cl)c1-c1ccc(F)cc1Cl [Compound 136, 4-(2-chloro-4-fluorophenyl)-N-(2,4-dichloro-6-fluorophenyl)-1,3-dimethyl-1H-pyrazol-5-amine] | 0 | 100 | 100 | 100 | 100 | 100 | 100 | 100 |  |  |  |  |  |  |  | 
4 | Cc1nn(C)c(Nc2c(Cl)cc(F)cc2Cl)c1-c1ccc(F)cc1Cl [Compound 138, 4-(2-chloro-4-fluorophenyl)-N-(2,6-dichloro-4-fluorophenyl)-1,3-dimethyl-1H-pyrazol-5-amine] | 0 | 100 | 17 | 100 | 100 | 66 | 99 | 0 |  |  |  |  |  |  |  | 
5 | Cc1nn(C)c(Nc2c(Cl)cc(F)cc2Cl)c1-c1c(F)cccc1F [Compound 142, N-(2,6-dichloro-4-fluorophenyl)-4-(2,6-difluorophenyl)-1,3-dimethyl-1H-pyrazol-5-amine] | 0 | 100 | 0 | 100 | 100 | 96 | 100 | 92 |  |  |  |  |  |  |  | 
6 | Cc1nn(C)c(Nc2c(F)cc(F)cc2Br)c1-c1ccc(F)cc1F [Compound 143, N-(2-bromo-4,6-difluorophenyl)-4-(2,4-difluorophenyl)-1,3-dimethyl-1H-pyrazol-5-amine] | 0 | 100 | 100 | 100 | 100 | 100 | 100 | 100 |  |  |  |  |  |  |  | 
7 | Cc1nn(C)c(Nc2c(F)cc(Br)cc2F)c1-c1c(F)cccc1F [Compound 145, N-(4-bromo-2,6-difluorophenyl)-4-(2,6-difluorophenyl)-1,3-dimethyl-1H-pyrazol-5-amine] | 0 | 100 | 0 | 28 | 99 | 0 | 90 | 0 |  |  |  |  |  |  |  | 
8 | Cc1nn(C)c(Nc2c(F)cc(F)cc2Br)c1-c1c(F)cccc1F [Compound 146, N-(2-bromo-4,6-difluorophenyl)-4-(2,6-difluorophenyl)-1,3-dimethyl-1H-pyrazol-5-amine] | 0 | 100 | 74 | 98 |  | 100 | 100 | 100 |  |  |  |  |  |  |  | 
9 | Cc1nn(C)c(Nc2c(F)cc(Cl)cc2Cl)c1-c1ccc(F)cc1F [Compound 161, N-(2,4-dichloro-6-fluorophenyl)-4-(2,4-difluorophenyl)-1,3-dimethyl-1H-pyrazol-5-amine] | 0 |  |  |  |  |  |  |  | 99 | 100 | 100 | 100 | 99 | 100 | 100 | 
10 | Cc1nn(C)c(Nc2ccc(C#N)cc2F)c1-c1c(F)cc(F)cc1F [compound 34] |  |  |  |  |  |  |  |  | 100 | 0 | 99 | 100 | 99 | 99 | 94 | Test C rating (disease control) [1]: 9%
11 | Cc1nn(C)c(Oc2c(F)cc(C#N)cc2F)c1-c1ccc(F)cc1F [compound 45] |  |  |  |  |  |  |  |  | 98 | 0 | 100 | 100 | 99 | 99 | 99 | Test C rating (disease control) [1]: 0%
12 | Cc1nn(C)c(Nc2ccc(C#N)cc2F)c1-c1c(F)cccc1F [compound 59] |  |  |  |  |  |  |  |  | 100 | 9 | 98 | 99 | 94 | 98 | 73 | Test C rating (disease control) [1]: 0%
13 | Cc1nn(C)c(Nc2c(F)cc(Cl)cc2F)c1-c1ccc(Cl)cc1Cl [compound 157] |  |  |  |  |  |  |  |  | 100 | 27 | 100 | 100 | 97 | 99 | 87 | Test C rating (disease control) [1]: 0%
14 | Cc1nn(C)c(Nc2ccc(Cl)cc2F)c1-c1c(F)cccc1F [compound 162] |  |  |  |  |  |  |  |  | 100 | 9 | 100 | 100 | 88 | 100 | 0 | Test C rating (disease control) [1]: 0%
15 | CCOc1ccc(-c2c(C)nn(C)c2Nc2c(F)cc(F)cc2Cl)c(F)c1 [compound 188] |  |  |  |  |  |  |  |  |  |  |  |  |  |  |  | Test C rating (% disease control) [1]: 0%; Test G rating (% disease control) [3]: 0%; Test H rating (% disease control) [4]: 98%; Test A rating (% disease control) [5]: 100%; Test B rating (% disease control) [6]: 99%; Test I rating (% disease control) [7]: 98%; Test E rating (% disease control) [8]: 92%
16 | CCOc1ccc(-c2c(C)nn(C)c2Nc2c(F)cc(Cl)cc2F)c(F)c1 [compound 189] |  |  |  |  |  |  |  |  |  |  |  |  |  |  |  | Test C rating (% disease control) [1]: 0%; Test G rating (% disease control) [3]: 0%; Test H rating (% disease control) [4]: 98%; Test A rating (% disease control) [5]: 100%; Test B rating (% disease control) [6]: 88%; Test I rating (% disease control) [7]: 98%; Test E rating (% disease control) [8]: 90%
17 | CCOc1ccc(-c2c(C)nn(C)c2Nc2c(F)cc(Cl)cc2Cl)c(F)c1 [compound 190] |  |  |  |  |  |  |  |  |  |  |  |  |  |  |  | Test C rating (% disease control) [1]: 0%; Test G rating (% disease control) [3]: 9%; Test H rating (% disease control) [4]: 96%; Test A rating (% disease control) [5]: 100%; Test B rating (% disease control) [6]: 82%; Test I rating (% disease control) [7]: 95%; Test E rating (% disease control) [8]: 0%
18 | COc1ccc(-c2c(C)nn(C)c2Nc2c(F)cc(Cl)cc2Cl)c(F)c1 [compound 191] |  |  |  |  |  |  |  |  |  |  |  |  |  |  |  | Test C rating (% disease control) [1]: 0%; Test G rating (% disease control) [3]: 46%; Test H rating (% disease control) [4]: 99%; Test A rating (% disease control) [5]: 100%; Test B rating (% disease control) [6]: 99%; Test I rating (% disease control) [7]: 99%; Test E rating (% disease control) [8]: 92%
